Laboratory results published in PubChem BioAssay (NCI).
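Dose response: 5 concentrations. Exposure: 48 h. Format: 96-well plates. Endpoint: linear interpolation; highest concentration if not reached. GI50 is the concentration that inhibits growth by half. TGI denotes the concentration required for complete inhibition of growth.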

How the values were obtained:
Assay in all cases: DTP human tumour cell line panel, 48 h
[1] = tested on: SK-MEL-5 melanoma
[2] = tested on: HOP-62 NSCLC
[3] = tested on: NCI-H226 lung
[4] = tested on: SNB-19 CNS
[5] = tested on: HCC-2998 colon
[6] = tested on: HT29 colon
[7] = tested on: NCI-H23 lung
[8] = tested on: OVCAR-4 ovarian
[9] = tested on: 786-0 renal
[10] = tested on: DU-145 prostate

Row | SMILES | TGI [1] [µM] | TGI [2] [µM] | TGI [3] [µM] | TGI [4] [µM] | TGI [5] [µM] | TGI [6] [µM] | TGI [7] [µM] | TGI [8] [µM] | TGI [9] [µM] | GI50 [1] [µM] | GI50 [2] [µM] | GI50 [10] [µM] | TGI [10] [µM] | GI50 [3] [µM] | GI50 [4] [µM] | GI50 [6] [µM] | GI50 [7] [µM] | GI50 [9] [µM] | GI50 [5] [µM] | GI50 [8] [µM]
1 | COc1ccccc1/C=C1\CCC(CNc2ccc(Cl)cc2)C1=O (centres undefined) | 18.4 | 22.9 | 28.3 | 25 | 18.8 | 22.9 | 20.8 | 28.2 | 22.2 |  |  |  |  |  |  |  |  |  |  | 
2 | CS(=O)(=O)OCCN1CCN(C(=O)c2cccc3c(Nc4ccc(S(N)(=O)=O)cc4)c4ccccc4nc23)CC1 | > 100 | > 100 | > 100 | > 72.6 | > 100 | > 100 | > 100 | > 100 | > 100 |  |  |  |  |  |  |  |  |  |  | 
3 | Nc1ccc(-c2nc3ccccc3[nH]2)c(O)c1 | 72.3 | > 100 | > 100 | > 100 |  | > 100 | 66.3 |  | > 100 | 21.3 | 60.5 | 38.9 | > 100 | 35.5 | 66.8 | 41 | 20 | 47.4 |  | 
4 | c1cc(C2CCCCC2)ccc1OCCCCCCN1CCNCC1 | 3.26 |  | 26.4 |  | 3.76 | 2.98 | 3.82 | 4.52 | 5.31 | 1.78 |  | 1.88 | 3.42 | 4.67 |  | 1.45 | 1.96 | 2.31 | 2.14 | 1.95
5 | Nc1ccc(N=Nc2ccccc2)c(N)n1 | > 100 | > 100 | > 100 | > 100 | 58.8 | > 100 | > 100 |  | 44.4 | 26.3 | 33.9 | 25.2 | 81 | 62.6 | 40.7 | 34.5 | 31.9 | 20.8 | 24.8 | 
6 | NC1C2C(CC(=O)O)OCC=C3CN4CCC1(C(=O)C(=O)O)C4CC32 (centres undefined) | > 100 | > 100 | > 100 | > 100 |  | > 100 | > 100 | > 100 | > 100 |  |  |  | > 100 |  |  |  |  |  |  | 
7 | CS(=O)(=O)N(CCC#N)c1ccc(/C=N/NC(=O)CC(=O)Nc2cccc(Cl)c2)cc1 | > 100 | > 100 | > 100 | > 100 | > 100 | > 100 | > 100 | > 100 | > 100 |  |  |  |  |  |  |  |  |  |  | 
8 | N#CCCN(CCC#N)c1ccc(/C=C2\N=C(COc3ccc(Cl)cc3Cl)OC2=O)cc1 | > 100 | > 100 |  | > 100 | > 100 | > 100 | > 100 | > 100 | > 100 |  |  |  |  |  |  |  |  |  |  | 
9 | COc1cc(N=Nc2ccccc2)cc(/C=N\[N-]C(N)=S)c1[O-].COc1cc(N=Nc2ccccc2)cc(/C=N\[N-]C(N)=S)c1[O-].[Fe+4] | 49 | 89.9 | > 100 | > 100 | > 100 | > 100 | > 100 | > 100 | > 100 | 13.5 | 23.4 |  |  | > 100 | 44.4 | 34.9 | 21.1 | 36.2 | 29.7 | 17.8
10 | COc1ccc(C(O)c2cc3c(N)c(C(=O)Nc4cccc(Cl)c4C)sc3nc2C)cc1 (centres undefined) | 1.58 |  | 3.15 | 1.92 | 1.16 | 1.72 | 1.8 | 2 | 1.53 | 0.874 |  | 0.929 | 1.85 | 1.04 | 0.943 | 0.768 | 0.926 | 0.786 | 0.444 | 0.782
11 | C[C@]12CC/C(=N\N)C[C@@H]1CC[C@@H]1[C@@H]2CC[C@]2(C)/C(=N/N)CC[C@@H]12 | > 100 | > 100 |  |  | > 100 | > 100 | > 100 | > 100 | > 100 | > 100 | > 100 | > 100 | > 100 |  |  | > 100 | > 100 | > 100 | > 100 | > 100
12 | CNS(=O)(=O)NN(C)S(=O)(=O)c1ccc(Cl)cc1 | > 100 | > 100 | > 100 | > 100 | > 100 | > 100 | > 100 | > 100 | > 100 |  |  |  |  |  |  |  |  |  |  | 
13 | OCCN(CCO)c1cccc(N(CCO)CCO)c1 | > 100 | > 100 |  | > 100 |  |  | > 100 | > 100 | > 100 |  |  |  |  |  |  |  |  |  |  | 
14 | Cn1ccnc1C(c1nccn1C)C(C)(C)[N+](=O)[O-] | > 100 | > 100 |  |  | > 100 |  |  | > 100 | > 100 |  |  |  |  |  |  |  |  |  |  | 
15 | O=C1CCC2CCc3cccc4oc1c2c34 (centres undefined) | > 100 | > 100 |  | > 100 | > 100 | > 100 | > 100 | > 100 | > 100 |  |  |  |  |  |  |  |  |  |  | 
16 | O=C1O[C@H](C(Cl)(Cl)Cl)N2CCCC12 (some centres undefined) | > 100 | > 100 | > 100 | > 100 |  | > 100 | > 100 | > 100 | > 100 |  |  |  |  |  |  |  |  |  |  | 
17 | CC(C)COC(=O)N1N=NC2C3OC(CC3=O)C21 (centres undefined) | > 100 | > 100 | > 100 | > 100 | > 100 | > 100 | > 100 | > 100 | > 100 |  |  |  |  |  |  |  |  |  |  | 
18 | Cn1cc(NC(=O)c2cc(NC(=O)Nc3cc(C(=O)Nc4cc(C(=O)NCCC(=N)N)n(C)c4)n(C)c3)cn2C)cc1C(=O)NCCC(=N)N | 53.1 | > 100 |  | > 100 | > 100 | > 100 | > 100 | > 100 | 38.1 |  |  |  |  |  |  |  |  |  |  | 
19 | CC1=C(SCc2ccccc2)C(=O)c2ccccc2C1=O | 31 | 33.5 |  |  | 57 | 90.2 | 41.8 | 27.2 | 30.9 |  |  |  | 34.9 |  |  |  |  |  |  | 
20 | O=C(O)CNS(=O)(=O)c1ccc(NC(=O)c2ccc(F)cc2)cc1 | > 100 |  |  | > 100 | > 100 | > 100 | > 100 | > 100 | > 100 |  |  |  |  |  |  |  |  |  |  | 
